Results on four compounds are retold here after PMC11462627, “SAL0114: a novel deuterated dextromethorphan-bupropion combination with improved antidepressant efficacy and safety profile” (Frontiers in Pharmacology, 2024).

Like-named read-outs stand apart in the source and are kept apart here.

The target in series [1] is T1, serotonin transporter (Homo sapiens, UniProt P31645).
T1 construct: purchased PerkinElmer, Inc RBHSTM400UA
Briefly: biochemical. Particulars: for Ki: radioligand competition, mean, n = 2. The class given is binding. As to the method: The experiments were carried out in the Pharmaron laboratory, and the methods were referenced from previous studies with modifications ([Yang and Gouaux, 2021]). Competitive binding of the samples and ^3H-hydroxytryptamine creatine sulfate on SERT was assessed using a radioligand binding method. The ability of the compound to competitively bind to SERT (Ki) was determined by detecting the signal value of the radioligand bound to the transporter using a Microbeta instrument (2,450, Perkin Elmer, Massachusetts, United States).
In general terms: Displacement assays read how much labelled ligand stays bound in the presence of the test substance.

Series [2] deals with T2, nAchR α3β4 (Homo sapiens, UniProt P30926+P32297).
T2 construct: host or cells: CHO-K1
The experiment in a line: nAchR α3β4 radioligand binding (125I-epibatidine, recombinant CHO-K1 cells). As to the method:
The experiments were carried out in the Eurofins Discovery laboratory, and the methods were referenced from previous studies with modifications ([Michelmore et al., 2002]; [Zaveri et al., 2010]). The competitive binding of the samples and ^125I-epibatidine to the nAchR α3β4 in human recombinant CHO-K1 cells was assessed using a radioligand binding method. The ability of the compound to competitively bind to nAchR α3β4 (Ki) was determined by detecting the signal value of the radioligand bound to the receptor.

For series [3], the target named is T3, norepinephrine transporter (Homo sapiens, UniProt P23975).
T3 construct: purchased PerkinElmer, Inc RBHNETM400UA
Briefly: Norepinephrine transporter (NET) radioligand binding (3H-Nisoxetine). As to the method:
The experiments were carried out in the Pharmaron laboratory, and the methods were referenced from previous studies with modifications ([Bylund and Toews, 1993]; [Galli et al., 1995]). Competitive binding of the compound and ^3H-Nisoxetine to NETs was assessed using a radioligand binding method. The ability of the compound to competitively bind to NET (Ki) was determined by detecting the signal value of the radioligand bound to the transporter using a Microbeta instrument (2450, Perkin Elmer, Massachusetts, United States).

Series [4] has as its target T4, Sigma-1 receptor (Homo sapiens, UniProt Q99720).
T4 construct: to the Sigma-1 receptor (Sigma-1R) of human-derived Jurkat cells; host or cells: Jurkat cells
The experiment in a line: Sigma 1 receptor radioligand binding (3H-pentazocine, Jurkat cells). The method, then:
The experiments were carried out in the Eurofins Discovery laboratory, and the methods were referenced from previous studies with modifications ([Prasad et al., 1999]). Competitive binding of the samples and ^3H-pentazocine to the Sigma-1 receptor (Sigma-1R) of human-derived Jurkat cells was assessed using a radioligand binding method. The ability of the compound to bind competitively to the Sigma-1 receptor (Ki) was determined by detecting the signal value of the radioligand bound to the receptor.

For series [5], the target named is NMDA receptor. Particulars: for Ki: read-out: Ki, NMDA receptor, 3H-MK801 competition, rat brain membranes, mean, n = 4. The method, then:
Membrane preparation was performed as previously described ([Werling et al., 2007]). Briefly, the brains of male Sprague-Dawley rats were dissected for tissue collection. The tissue was then homogenized in ice-cold extraction solution and centrifuged at 40,000 × g for 10 min (minute). The supernatant was discarded, the precipitate was resuspended in extraction solution, and the above steps were repeated two times. Finally, the precipitate was resuspended in a 10-fold volume of resuspension solution and stored at −80°C. Protein concentration was determined using a PierceTM BCA Protein Assay Kit. The competitive binding of the compound and ^3H-MK801 to the NMDA receptor was evaluated utilizing the filtration binding method. This method involves washing unbound radioligands and subsequently quantifying the signal values of the radioligands bound to the NMDA receptor using a Microbeta instrument (catalog number: 2450, Perkin Elmer, Massachusetts, United States).

The test system of series [6] is ICR mice. The experiment in a line: Tail suspension test. The format is in vivo. Particulars: TST, oral, 1 h after administration, deDM 10 and 18 mg/kg, BUP 50 mg/kg, deDM + BUP 10 + 50 and 18 + 50 mg/kg. The method, then: The TST was adapted from the behavioral despair test described by Nguyen et al. ([Nguyen et al., 2017]), with some modifications. […] All compounds were administered orally via gavage at a volume of 10 mL/kg body weight, with the vehicle group receiving an equivalent volume of saline. One hour after administration, mice underwent a tail suspension test (TST). For the TST, each mouse was suspended by its tail, with adhesive tape attached 2 cm from the tail tip and secured to a metal rod. Care was taken to ensure a minimum distance of 15 cm between the suspended animal and the surrounding objects. The test was performed using the ANY-maze version 4.63 video tracking program (Stoelting Co., Wood Dale, IL, United States) for a total duration of 6 min. The initial 2 min served as an acclimatization period and were not scored. The immobility time during the subsequent 4 min was measured using the same software. Immobility was defined as mouse hanging passively and motionless. The ANY-Maze software parameters were set as follows: acclimatization period = 120 s, test duration = 240 s, minimum immobility time = 2 s, and immobility sensitivity = 75%. […]

Series [7] deals with C57BL/6J mice. Briefly: Ammonia-induced cough mouse model. The class given is in vivo. Particulars: oral. The method, then:
Antitussive effects were investigated using a classical mouse cough model induced by ammonia liquor, with some modifications ([Jiang et al., 2014]; [Adejayan et al., 2019]). An ammonia-induced cough model in male C57BL/6J mice was used to evaluate the antitussive effects using a two-step approach. The initial screening phase aimed to identify the mice with consistent and pronounced cough responses. Individual mice were exposed to 0.2 mL of 13% ammonium hydroxide solution in 500 mL glass vials. A trained observer measured the latency period and recorded the number of coughs over a 3-min period post-exposure. […] Following a 24-h recovery period, 70 eligible mice were randomly allocated to seven treatment groups (n = 10 per group) for the compound evaluation phase. […] All compounds were administered orally at a volume of 10 mL/kg. At 0.5 h post-administration, each mouse was re-exposed to 0.2 mL of 13% ammonia in a 500 mL glass jar for 1 min. Subsequently, the trained observer recorded the number of coughs over a 3-min period following removal from the jar. […] All experimental procedures were conducted in strict compliance with guidelines approved by the Institutional Animal Care and Use Committee of Shenzhen Salubris Pharmaceuticals Co., Ltd., ensuring adherence to ethical standards in animal research. A P value of less than 0.05 was considered statistically significant for comparisons between groups.

Series [8] deals with ICR mice. Briefly: Forced swim test. The class given is in vivo. Particulars: FST, oral, 1 h after administration, deDM 10 and 18 mg/kg, BUP 50 mg/kg, deDM + BUP 10 + 50 and 18 + 50 mg/kg. The method, then:
The mouse forced swim test was performed in a way similar to that published previously by Nguyen et al. ([Nguyen et al., 2017]) with some modifications. […] All compounds were administered orally via gavage at a volume of 10 mL/kg body weight, with the vehicle group receiving an equivalent volume of saline. 1 h after administration, mice underwent the forced swim test (FST), a widely used behavioral assay for evaluating antidepressant-like effects. Each mouse was individually placed in a transparent cylindrical tank filled with water (depth: 18 cm, temperature: 25°C ± 1°C) for a 6-min test session. The initial 2 min served as the acclimatization period and was not scored. Floating time during the subsequent 4 min was measured using ANY-Maze Version 4.63 video tracking software (Stoelting Co., Illinois, United States). Floating was defined as the minimum movement required to keep the animal’s head above water. Floating time (%) = floatting time(s)/240 s. The ANY-Maze software parameters were set as follows: acclimatization period = 120 s, test duration = 240 s, minimum immobility time = 2 s, and immobility sensitivity = 75%. To maintain consistent conditions, water was changed between the animals. […]

Series [9] deals with Sprague-Dawley rats. The experiment in a line: Reserpine-induced hypothermia in rats. The class given is in vivo. Particulars: reserpine 4 mg/kg i.p. rats, oral, 30 min after treatment; BUP 40 mg/kg, deDM 5 and 10 mg/kg, deDM + BUP 5 + 40 and 10 + 40 mg/kg. As to the method: A reserpine-induced hypothermia test was performed according to the method described by Rojas-Corrales et al. ([Rojas-Corrales et al., 2004]; [Dhamija et al., 2017]), with some modifications. 80 male Sprague-Dawley rats were administered an intraperitoneal injection of reserpine (4 mg/kg). 18 h after the injection, rectal temperatures were measured using a rectal probe connected to a thermometer (MC-347, Omron Healthcare, Dalian, China). Rats with body temperatures not exceeding 34.5°C were considered successfully modeled. […] An additional group of ten rats not treated with reserpine served as the normal control. After the group assignment, the second phase of compound administration was initiated. The normal and model control groups received oral saline (10 mL/kg), whereas the other groups received their respective compounds orally at the specified doses, all in an equivalent volume (10 mL/kg). Rectal temperatures were measured 30 min after treatment to assess the effect of compounds in each group on the reserpine-induced hypothermia model. All experimental procedures were conducted in strict accordance with guidelines approved by the Institutional Animal Care and Use Committee of Shenzhen Salubris Pharmaceuticals Co., Ltd. A P value of less than 0.05 was considered statistically significant for comparisons between groups.

Series [10] in a line: Pharmacokinetics in male SD rat after oral administration. The class given is in vivo. Particulars: male, SD, rat, in vivo, po, 50 mg/kg. An excerpt: Results expressed as mean, n=3 per group
Series [11] in a line: Pharmacokinetic study in C57BL/6 mice. Particulars: male, C57BL/6, mouse, plasma, po, 20 mg/kg. The format is in vivo. An excerpt: The assay was built in a way similar to that previously published by [Beconi et al. (2011)] with some modifications. A total of 36 male C57BL/6 mice, weighing between 20 and 22 g, were randomly divided into four groups of nine mice each. […] Mice in each group were numbered 1–9. Following the oral administration of the compounds in each group, blood was collected from the jugular vein at the specified time points, with three mice at each time point and two to three times for each mouse. 1–3 numbered mice had blood collection time points of 0.25, 1.5, and 7 h after the administration of the compounds, 4–6 numbered mice had blood collection time points of 0.5, 2, and 24 h after the administration of the compounds, and 7–9 numbered mice had blood collection time points of 1 and 5 h after the administration of the compounds. All blood samples were collected without anesthesia, and blood was collected in heparinized EP tubes. Plasma was obtained by centrifuging the blood at 10,000 rpm for 2 min at 4°C.

Series [12] can be described thus: Metabolic stability in liver microsomes. The format is in vitro ADME, human. The method, then: All incubations were performed in duplicates. Verapamil was used as the positive control. After pre-warming the mixture for 5 min, reactions were initiated by the addition of NADPH (1 mM). Samples (30 μL) were taken at 0, 20, and 60 min, and the reaction was immediately terminated by adding 150 μL acetonitrile containing an analytical internal standard (IS). Samples were centrifuged at 4,000 rpm for 5 min in a centrifuge (5810R, Eppendorf, Germany), and the supernatant was analyzed by LC-MS/MS (Thermo Scientific TSQ Quantum Ultra, United States).
The in vivo clearance values (CLint = CLint, in vitro × (mg protein/g liver weight) × (g liver weight/kg body weight)) of humans were predicted by CLint, in vitro values using physiologically-based scaling factors, hepatic microsomal protein concentrations (48.8 mg protein/g liver), and liver weights (25.7 g/kg body weight). The in vivo hepatic clearance (CLH= (Q × CLint)/(Q + CLint)) was then calculated by using CLint and hepatic blood flow, Q (20.7 mL·min^−1·kg^−1 in humans).

T4 sequence (Q99720 whole entry): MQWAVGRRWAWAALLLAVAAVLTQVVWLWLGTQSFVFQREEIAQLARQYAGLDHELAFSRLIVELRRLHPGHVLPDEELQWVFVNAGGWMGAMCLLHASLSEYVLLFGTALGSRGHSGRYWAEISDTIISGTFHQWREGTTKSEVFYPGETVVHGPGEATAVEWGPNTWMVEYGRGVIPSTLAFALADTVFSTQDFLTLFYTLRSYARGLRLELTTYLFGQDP
T1 sequence (P31645 whole entry): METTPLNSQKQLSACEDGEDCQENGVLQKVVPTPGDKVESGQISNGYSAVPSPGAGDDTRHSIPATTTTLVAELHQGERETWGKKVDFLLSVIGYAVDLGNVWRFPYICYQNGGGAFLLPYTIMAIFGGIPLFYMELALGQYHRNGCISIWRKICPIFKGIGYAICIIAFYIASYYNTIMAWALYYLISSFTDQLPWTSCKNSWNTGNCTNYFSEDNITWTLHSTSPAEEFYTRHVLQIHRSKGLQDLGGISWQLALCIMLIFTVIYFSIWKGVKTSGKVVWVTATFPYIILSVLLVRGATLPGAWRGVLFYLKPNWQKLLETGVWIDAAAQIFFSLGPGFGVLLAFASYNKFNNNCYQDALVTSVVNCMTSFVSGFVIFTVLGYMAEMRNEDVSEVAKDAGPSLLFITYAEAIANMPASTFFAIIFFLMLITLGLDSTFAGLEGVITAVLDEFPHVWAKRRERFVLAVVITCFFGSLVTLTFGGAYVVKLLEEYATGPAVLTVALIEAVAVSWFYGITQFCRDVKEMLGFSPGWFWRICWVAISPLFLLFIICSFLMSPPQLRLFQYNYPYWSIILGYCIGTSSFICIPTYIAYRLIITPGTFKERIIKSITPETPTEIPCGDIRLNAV
T3 sequence (P23975 whole entry): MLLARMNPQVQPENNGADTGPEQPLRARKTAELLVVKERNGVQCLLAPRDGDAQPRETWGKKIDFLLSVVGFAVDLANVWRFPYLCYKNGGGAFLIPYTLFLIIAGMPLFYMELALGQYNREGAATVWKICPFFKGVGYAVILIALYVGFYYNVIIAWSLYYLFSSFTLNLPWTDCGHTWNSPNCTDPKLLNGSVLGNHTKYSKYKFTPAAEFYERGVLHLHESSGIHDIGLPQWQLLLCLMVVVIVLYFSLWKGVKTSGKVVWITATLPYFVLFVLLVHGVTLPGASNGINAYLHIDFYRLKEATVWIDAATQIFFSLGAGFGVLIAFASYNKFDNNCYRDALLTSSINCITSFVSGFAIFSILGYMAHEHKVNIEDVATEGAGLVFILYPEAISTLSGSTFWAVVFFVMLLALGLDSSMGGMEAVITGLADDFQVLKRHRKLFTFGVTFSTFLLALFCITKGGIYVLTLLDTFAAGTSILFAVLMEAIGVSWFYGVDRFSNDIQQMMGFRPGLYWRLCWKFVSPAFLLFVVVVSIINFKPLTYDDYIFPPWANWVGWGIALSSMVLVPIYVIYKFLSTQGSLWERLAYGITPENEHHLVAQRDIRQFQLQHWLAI
T2 sequence (P32297 32-505): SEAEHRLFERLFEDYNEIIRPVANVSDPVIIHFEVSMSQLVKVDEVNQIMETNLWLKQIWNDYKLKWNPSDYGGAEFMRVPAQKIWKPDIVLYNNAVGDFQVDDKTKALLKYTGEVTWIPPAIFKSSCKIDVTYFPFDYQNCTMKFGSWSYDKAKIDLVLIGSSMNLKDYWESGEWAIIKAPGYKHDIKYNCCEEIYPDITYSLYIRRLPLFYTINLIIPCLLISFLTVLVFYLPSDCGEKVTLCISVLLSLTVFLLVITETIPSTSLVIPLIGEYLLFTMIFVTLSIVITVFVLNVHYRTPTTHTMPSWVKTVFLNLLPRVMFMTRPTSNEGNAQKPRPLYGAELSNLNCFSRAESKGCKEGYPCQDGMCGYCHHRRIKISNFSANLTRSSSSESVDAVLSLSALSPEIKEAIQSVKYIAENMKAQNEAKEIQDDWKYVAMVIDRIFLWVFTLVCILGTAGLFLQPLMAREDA
T2 sequence (P30926 22-498): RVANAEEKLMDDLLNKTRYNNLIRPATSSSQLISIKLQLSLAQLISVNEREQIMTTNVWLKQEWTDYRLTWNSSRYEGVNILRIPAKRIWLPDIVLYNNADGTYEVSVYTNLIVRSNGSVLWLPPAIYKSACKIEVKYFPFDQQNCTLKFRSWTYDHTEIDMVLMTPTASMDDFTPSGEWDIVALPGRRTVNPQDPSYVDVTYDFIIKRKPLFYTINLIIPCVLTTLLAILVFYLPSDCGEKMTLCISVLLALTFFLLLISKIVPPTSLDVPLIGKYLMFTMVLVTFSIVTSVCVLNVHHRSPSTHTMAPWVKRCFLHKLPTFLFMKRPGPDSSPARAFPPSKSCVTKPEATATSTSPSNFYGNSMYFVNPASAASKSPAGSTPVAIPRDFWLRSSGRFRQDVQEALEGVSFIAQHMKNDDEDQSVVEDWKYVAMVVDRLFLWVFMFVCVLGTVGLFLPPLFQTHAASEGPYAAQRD

Consider deuterated dextrorphan [deDX], for which the Ki (usually a dissociation constant, usually derived from enzyme kinetics or from competition with a known ligand) in series [1] was determined as 120 nM; in series [2] (125I-epibatidine competition, human recombinant CHO-K1 cells, mean, n = 2, read-out: Ki, α3β4 nicotinic acetylcholine receptors), 15000 nM; in [3] (3H-Nisoxetine competition, mean, n = 2, read-out: Ki, norepinephrine transporter), 7930 nM; in series [4] (3H-pentazocine competition, human-derived Jurkat cells, mean, n = 2, read-out: Ki, Sigma-1 receptor), 2860 nM; in series [5] it was 420 nM.

For `CN1CC[C@@]23CCCC[C@@H]2[C@@H]1Cc1ccc(O)cc13` [DX, dextrorphan, reference compound], the inhibition constant (Ki) in series [1] turned out to be 140 nM; in [2], 9980 nM; in [3], 5670 nM; in series [4] it was 2850 nM; in series [5] it was 220 nM. For the same compound, the “lower affinity for SERT compared to DM” value in series [1] (ratio of Ki values) was 17 fold. In [5] (ratio of Ki values), the “higher affinity for NMDA receptors compared to DM” value turned out to be 7 fold.

Turning to `CC(NC(C)(C)C)C(=O)c1cccc(Cl)c1` (centres unmarked) [BUP, bupropion], the “immobilization time compared to the vehicle group” value in series [6] is reported as “significantly reduced the immobilization time”. In [7] (40 mg/kg, 0.5 h post-administration), this compound returned a cough inhibition rate of 19.5%. The “cough inhibition compared with the vehicle group” value in [7] (deDM 5 and 10 mg/kg, BUP 40 mg/kg, deDM + BUP 5 + 40 and 10 + 40 mg/kg) is reported as “neither deDM nor BUP significantly inhibited cough”. In addition, in series [8], the “floating time compared to the vehicle group” value is “significantly reduced the floating time”. Moreover, the “body temperature compared with the model (vehicle) group” value in series [9] is given as “significantly increased the body temperature”.

In the case of `COc1ccc2c(c1)[C@]13CCCC[C@@H]1[C@H](C2)N(C)CC3` [DM, dextromethorphan], the AUC(0-t) (in general, exposure summed from dosing to a finite time, without extrapolation to infinity) in series [10] came to 194 ng·h/mL; in series [11] it was 184 ± 168 ng·h/mL. Moreover, the Cmax – broadly, the maximum level reached in the sampled fluid or tissue – came to 56 ng/mL in [10] (read-out: Cmax) and 74.9 ± 49 ng/mL in series [11] (read-out: Cmax). Further, the Ki in series [3] came out at 20500 nM; in series [4] it was 1670 nM. Further, the half-life (in general, the time needed for the level to fall by half in the phase considered) at 1 μM in series [12] (1 μM, 0.5 mg/mL human liver microsomes, NADPH 1 mM, 37°C, mean, n = 2) came out at 1.24 h. Also, the CLint scaled at 1 μM in [12] (human, liver microsomes, read-out: CLint, in vitro) is 23.4 mL/min/kg. Besides, in series [12] (in vivo hepatic clearance predicted from CLint and hepatic blood flow 20.7 mL/min/kg, human), the CLH is on record as 11.0 mL/min/kg.
